# Measurements taken from PMC7377239, “Cardiovascular Effects of Polychlorinated Biphenyls and Their Major Metabolites” (Environmental Health Perspectives, 2020).
# Read-outs that look alike come from different tables or passages of the source.
# Experiments:
# [1] = tested on: iCell endothelial cells (human iPSC-derived ECs); test: High-content imaging cytotoxicity in iCell endothelial cells, 24 h; format: cell-based; details: Homo sapiens, Endothelial cell, 24 hr; for viability at 0.1 µM / activity at 0.1 µM: 0.10 µM
# How it was run: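 Human iPSC-derived endothelial cells (passages 1–5) were grown to a fibronectin-coated monolayer, then exposed 24 h at 37 °C with 0.5% DMSO vehicle. Staining was Hoechst 33342, MitoTracker Orange and calcein AM, read by high-content imaging. Point of departure came from 4-parameter logistic fits, with a 1-SD vehicle cutoff and 100 µM as the top concentration.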
# [2] = tested on: iPSC-CMs, iPSC-ECs and HUVECs phenotypes; test: ToxPi 2.0 integration of POD values and physicochemical descriptors; design: species or system human; details: ToxPi-scaled (0-1) score
# Text: Phenotypic responses were quantitatively assessed using concentration–response modeling as detailed elsewhere ([Sirenko et al. 2017]). Briefly, phenotypic readouts were normalized to vehicle controls and fit to a four-parameter logistic model in R studio software (version 3.1.1; R Development Core Team). Following EPA guidance on dose–response modeling, a cutoff of one standard deviation across means of vehicle control (i.e., 0.5% vol/vol DMSO in cell culture media) wells was applied to determine the point-of-departure (POD) values ([U.S. EPA 2012]). In the absence of a concentration–response, the highest tested concentration (i.e., 100μM ) was assigned as “no observable adverse effect level.” The concentration–response assessment R script, as well as templates for vehicle and concentration–response data, are available as a supplement to Sirenko et al. ([2017]). The ability of physicochemical properties to predict differences in PODs were evaluated by multiregression and mixed-effects modeling using R.
# POD values were then integrated using ToxPi 2.0 ([Marvel et al. 2018]) software. In ToxPi, each slice is representative of cell type– and time-point–specific phenotypes. The area of each slice is proportional to the relative value (e.g., bioactivity or physicochemical descriptor value) of the chemical within the data set. ToxPi scores were used to rank PCBs and their metabolites according to their overall bioactivity and to determine variability in total observable biological responses and chemical characteristics for each major metabolite class and chlorination status (mono-, hexa-chlorinated). Additional visualizations such as dumbbell and principal components analysis plots were generated in R Studio (version 1.1.456; R version 3.5.1; R Development Core Team) using the ggplot2 package.
# [3] = iPSC-EC, 0.00 µM control = 100.00, read-out: endo.cyto.24hr
# [4] = iPSC-EC, 0.00 µM control = 100.00, read-out: endo.mito.24hr
# [5] = iPSC-EC, 0.00 µM control = 100.00, read-out: endo.mitoint.24hr
# [6] = iPSC-EC, 0.00 µM control = 100.00, read-out: endo.nma.24hr
# [7] = iPSC-EC, 0.00 µM control = 100.00, read-out: endo.tc.24hrs
# [8] = iPSC endothelial cells, tube formation, 18 h
structure (smiles),measurement,setting,value
"O=C1C=CC(=O)C(c2ccc(Cl)cc2)=C1 [4-Cl-BQ, 2-(4-Chlorophenyl)benzo-2,5-quinone]",minimal effective concentration,"[1]; endothelial cells (endo), cyto, read-out: POD endo.cyto.24hr",3.82 µM
same,minimal effective concentration,"[1]; endothelial cells (endo), mito, read-out: POD endo.mito.24hr",3.82 µM
same,minimal effective concentration,"[1]; endothelial cells (endo), mitoint, read-out: POD endo.mitoint.24hr",14.2 µM
same,minimal effective concentration,"[1]; endothelial cells (endo), nma, read-out: POD endo.nma.24hr",13 µM
same,minimal effective concentration,"[1]; endothelial cells (endo), tc, read-out: POD endo.tc.24hr",2.56 µM
same,viability at 0.01 µM,[1]; [3],90%
same,activity at 0.01 µM,[1]; [4],90.5%
same,activity at 0.01 µM,[1]; [5],114%
same,activity at 0.01 µM,[1]; [6],105%
same,viability at 0.01 µM,[1]; [7],90%
same,viability at 0.1 µM,[1]; [3],89.7%
same,activity at 0.1 µM,[1]; [4],89.9%
same,activity at 0.1 µM,[1]; [5],103%
same,activity at 0.1 µM,[1]; [6],104%
same,viability at 0.1 µM,[1]; [7],89.7%
same,viability at 1 µM,[1]; [3],93.1%
same,activity at 1 µM,[1]; [4],93.1%
same,activity at 1 µM,[1]; [5],99.3%
same,activity at 1 µM,[1]; [6],103%
same,viability at 1 µM,[1]; [7],93.1%
same,viability at 10 µM,[1]; [3],87.8%
same,activity at 10 µM,[1]; [4],87.7%
same,activity at 10 µM,[1]; [5],95.2%
same,activity at 10 µM,[1]; [6],102%
same,viability at 10 µM,[1]; [7],87.8%
same,viability at 100 µM,[1]; [3],12.1%
same,activity at 100 µM,[1]; [4],3.06%
same,activity at 100 µM,[1]; [5],30.1%
same,activity at 100 µM,[1]; [6],161%
same,viability at 100 µM,[1]; [7],31.3%
same,minimal effective concentration,"[1]; iPSC-EC, top concentration 100.00 µM, read-out: endo.cyto.24hr POD",3.82 µM
same,minimal effective concentration,"[1]; iPSC-EC, top concentration 100.00 µM, read-out: endo.mito.24hr POD",3.82 µM
same,minimal effective concentration,"[1]; iPSC-EC, top concentration 100.00 µM, read-out: endo.mitoint.24hr POD",14.2 µM
same,minimal effective concentration,"[1]; iPSC-EC, top concentration 100.00 µM, read-out: endo.nma.24hr POD",13 µM
same,minimal effective concentration,"[1]; iPSC-EC, top concentration 100.00 µM, read-out: endo.tc.24hrs POD",2.56 µM
same,huvec.cyto.24hr,"[2]; HUVECs, 24 h",1
same,huvec.mito.24hr,"[2]; HUVECs, 24 h",0.8466
same,huvec.mitoint.24hr,"[2]; HUVECs, 24 h",0.9878
same,huvec.nma.24hr,"[2]; HUVECs, 24 h",0.6676
same,huvec.tc.24hr,"[2]; HUVECs, 24 h",1
same,huvec.mtl.18hr,"[2]; HUVECs, tube formation, 18 h",0.9933
same,huvec.tlps.18hr,"[2]; HUVECs, tube formation, 18 h",0.5585
same,huvec.tta.18hr,"[2]; HUVECs, tube formation, 18 h",1
same,huvec.ttl.18hr,"[2]; HUVECs, tube formation, 18 h",0.8997
same,cm.amp.avg.90min,"[2]; iPSC cardiomyocytes, 90 min",0.3159
same,cm.amp.cv.90min,"[2]; iPSC cardiomyocytes, 90 min",0.2492
same,cm.bpm.90min,"[2]; iPSC cardiomyocytes, 90 min",0.1564
same,cm.cam.90min,"[2]; iPSC cardiomyocytes, 90 min",0.4034
same,cm.decay.rise.90min,"[2]; iPSC cardiomyocytes, 90 min",0.215
same,cm.mii.90min,"[2]; iPSC cardiomyocytes, 90 min",0.8851
same,cm.mito.90min,"[2]; iPSC cardiomyocytes, 90 min",0.387
same,cm.spacing.cv.90min,"[2]; iPSC cardiomyocytes, 90 min",0.3114
same,cm.tc.90min,"[2]; iPSC cardiomyocytes, 90 min",0
same,cm.amp.avg.24hrs,"[2]; iPSC cardiomyocytes, 24 h",0.3257
same,cm.amp.cv.24hrs,"[2]; iPSC cardiomyocytes, 24 h",0.3094
same,cm.bpm.24hrs,"[2]; iPSC cardiomyocytes, 24 h",0.6578
same,cm.cam.24hrs,"[2]; iPSC cardiomyocytes, 24 h",1
same,cm.decay.rise.24hrs,"[2]; iPSC cardiomyocytes, 24 h",0.8647
same,cm.mii.24hrs,"[2]; iPSC cardiomyocytes, 24 h",0.2031
same,cm.mito.24hrs,"[2]; iPSC cardiomyocytes, 24 h",0.702
same,cm.spacing.cv.24hrs,"[2]; iPSC cardiomyocytes, 24 h",0.7459
same,cm.tc.24hrs,"[2]; iPSC cardiomyocytes, 24 h",0
same,endo.cyto.24hr,"[2]; iPSC endothelial cells, 24 h",0.5702
same,endo.mito.24hr,"[2]; iPSC endothelial cells, 24 h",0.5702
same,endo.mitoint.24hr,"[2]; iPSC endothelial cells, 24 h",0.2683
same,endo.nma.24hr,"[2]; iPSC endothelial cells, 24 h",0.3599
same,endo.tc.24hr,"[2]; iPSC endothelial cells, 24 h",0.6463
same,endo.mtl.18hr,[2]; [8],0.5822
same,endo.tlps.18hr,[2]; [8],0.7309
same,endo.tta.18hr,[2]; [8],0.1339
same,endo.ttl.18hr,[2]; [8],0.1969
